{
  "source": "patent US6482824B1",
  "about": "“Use of n-substituted (3,6-dihydro)-2h-1,2-oxazine derivatives as selective mglur1 antagonists” (Eli Lilly and Company, priority 1998, dated 2002)",
  "test": "ability of test compounds to treat migraine (as described in U.S. Pat. No. 5,817,671, U.S. Pat. No. 5,792,763 and J. Neurosci. Methods 1998, 81, 19-24)",
  "details": "in vivo",
  "data": [
    {"smiles": "CCOc1ccc(C2ON(S(=O)(=O)c3ccc(C(=O)NC)cc3)C(C)C=C2C)cc1", "note": "(stereo not shown) [Example 5, 3,6-Dihydro-3,5-dimethyl-6-(4-ethoxyphenyl)-2-(4-methylcarbamoylbenzenesulphonyl)-2H-1,2-oxazine]", "values": [
      {"measurement": "effectiveness in treatment of migraine", "value": "particularly effective"}
    ]}
  ]
}
